# In the METLIN SMRT retention time set (Domingo-Almenara et al. 2019):
# Assay: gradient 5% acetonitrile 3 min, to 50% in 2 min, to 85% in 15 min, held 3 min, 100 µL/min
# Conditions: column: Zorbax Extend-C18 2.1 x 50 mm; eluents: water / acetonitrile, 0.1% formic acid
# In short: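 Pure standards were analyzed in mixtures of ~100 molecules using HPLC coupled to a quadrupole time-of-flight mass spectrometer, in both positive and negative ionization mode. Separation used a Zorbax Extend-C18 column (2.1 × 50 mm, 1.8 μm) at 100 μL/min, with water and acetonitrile each containing 0.1% formic acid. Dead and dwell volumes were 40 μL and 900 μL, and data were collected over 3 months. Retention time was read from computationally picked adduct peaks, each inspected manually.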
row,RP-LC retention time,Structure (SMILES)
1,810 s,CC(C)c1ccc(-n2nc(N3CCN(C(=O)C4CC4)CC3)ccc2=O)cc1
2,792 s,CCc1ccc(CNC(=O)CN2C(=O)NC3(CCCCC3)C2=O)cc1
3,578 s,O=C(C1COc2ccccc2O1)N1CCN(Cc2nc3ccccc3[nH]2)CC1 (centres undefined)
4,706 s,O=C(CSc1ncnc2ccccc12)NCCc1ccccc1
5,564 s,COc1cn(CC(=O)NCc2ccccc2Cl)c(CO)cc1=O
6,775 s,Cc1ccc(S(=O)(=O)NC2CCN(C(=O)Cc3c[nH]c4ccccc34)CC2)cc1
7,818 s,CC(C(=O)N1CCCC1)C1CCN(C(=O)c2ccc3nc(-c4ccccc4)oc3c2)CC1 (centres undefined)
8,806 s,CCc1onc(C)c1C1CCCN1C(=O)Nc1ccc(C(=O)OC)cc1 (centres undefined)
9,666 s,CC1CN(Cc2ccccc2)c2nc3c(c(=O)n(CCN4CCOCC4)c(=O)n3C)n2C1 (centres undefined)
10,1280 s,O=S(=O)(c1ccc(-c2noc(-c3cccc(F)c3)n2)cc1)N1CCCCC1
11,675 s,CCc1ccc(-c2cn3cc(C(=O)N(CC)CC)ccc3n2)cc1
12,935 s,Cc1ccc(Cn2c(=O)c(N3CCN(C(=O)NCC4CCCO4)CC3)nc3cccnc32)cc1 (centres undefined)
13,925 s,Cc1ccc2[nH]cc(CCNC(=O)c3ccc4nc(C(C)C)oc4c3)c2c1
14,676 s,O=C1C2CC=CCC2C(=O)N1c1ccc(N2CCN(c3ccccn3)CC2)c([N+](=O)[O-])c1 (centres undefined)
15,778 s,CCC(=O)N1CCc2cc(N3CC(C(=O)Nc4ccc(C)cc4F)CC3=O)ccc21 (centres undefined)

# Second part, the molecule before the results:
row,Structure (SMILES),RP-LC retention time
1,COc1ccc(Cl)cc1NC(=O)c1c(O)c2cccnc2n(-c2ccc(F)cc2)c1=O,1280 s
2,CCS(=O)(=O)c1ccc(-c2ccc(NC(=O)c3cc(Cl)ccc3Cl)cc2)nn1,840 s
3,CC(C)NC(=O)C1CCCN(c2nc3ncn(CC(=O)Nc4ccc(F)c(F)c4)c(=O)c3s2)C1 (centres undefined),716 s
4,Cc1ccc(NC(=O)CSc2nc(=O)n(CCN(C)C)c3c2CCC3)cc1F,646 s
5,O=C(CC1CCCC1)N1CCC(c2noc(-c3ccncc3)n2)C1 (centres undefined),786 s
6,CC(C)(C)OC(=O)Nc1ccc(-c2cc(C(=O)NCCCCCCC(=O)NO)no2)cc1,739 s
7,Cc1ccc(-n2nc(N3CCCN(S(=O)(=O)c4ccc(Cl)cc4)CC3)ccc2=O)cc1,935 s
8,CCCn1ncc(N2CCC(C(=O)N3CCC(C)CC3)CC2)cc1=O,734 s
9,CCC1Oc2ccc(S(=O)(=O)N3CCC(C(=O)Nc4ccc(C(C)C)cc4)CC3)cc2NC1=O (centres undefined),1000 s
10,CCOc1cc(=O)c(C(N)=O)nn1-c1ccc(C)cc1,613 s
11,CCc1cccc(C)c1NC(=O)CN1C(=O)NC2(CCCCC2)C1=O,804 s
12,COc1ccc(-c2noc(Cc3nnc(-c4cccc(OC)c4)o3)n2)cc1,992 s
13,COc1ccccc1N1CCN(C(=O)Cn2ncc3c(c2=O)N(C)C(=O)CS3)CC1,661 s
14,Cc1nccn1C1CN(C(=O)Nc2ccccc2)C1,568 s
15,COC(=O)C1=CN(c2ccc(OC)c(OC)c2)c2ccc(F)cc2S1(=O)=O,788 s
16,O=C(Cc1csc(Nc2ccc(Cl)cn2)n1)Nc1ccc(OC(F)(F)F)cc1,1030 s
17,CCNC(=O)NC1CCN(c2ccc(C)cc2)C1=O (centres undefined),671 s
18,CCn1c(C2CCCN(C(=O)NC(C)C)C2)nn(C)c1=O (centres undefined),613 s
19,O=C(C1CCN(c2ncnc3c2oc2ccccc23)CC1)N1CCN(c2ccccc2Cl)CC1,930 s
20,N#Cc1cccc(NC(=O)C2CCN(S(=O)(=O)c3cc(-c4noc(C5CCC5)n4)cs3)CC2)c1,1070 s
21,Cn1c(=O)sc2cc(S(=O)(=O)N3CCC(C(=O)NC4CC4)CC3)ccc21,670 s
22,Cn1nccc1C(=O)N1CCC(Cc2nc(C3CC3)n[nH]2)C1 (centres undefined),578 s
23,CCN(CC)C(=O)c1ccc2c(c1)nnn2CCNC(=O)Nc1ccc(Br)cc1F,787 s
24,CC(C)Cn1cc(S(=O)(=O)Nc2ccc(F)cc2F)c2cccnc21,944 s
25,COc1cc(NC(=O)C2(Cc3ccccc3)CCCCC(=O)N2)cc(OC)c1 (centres undefined),847 s
26,Cc1ccc(Cl)cc1NC(=O)N1CCCC(Cn2cnc3cccnc32)C1 (centres undefined),709 s
27,Cc1cc(N2CCCC2)nc(N2CCN(C(=O)c3ccc(C(C)(C)C)cc3)CC2)n1,813 s
28,Cc1cc2nc(C(F)(F)F)c(=O)n(C(C)C(=O)NCc3ccco3)c2cc1C (centres undefined),756 s
29,O=C(N1CCC[C@H]1c1nc(-c2ccccc2)n[nH]1)C1(c2ccccc2)CC1,785 s
